14 molecules from patent US8173684B2, “Pyridone derivatives as p38α MAPK inhibitors” (Astellas Pharma Inc., priority 2007, dated 2012) can be followed below.

Usually inhibition stands for the percentage by which the read-out fell short of the control. Read a low inhibition as a weak effect.

Structures are written as SMILES.

The assay has as its system TNF-α production in THP-1 cells. The experiment in a line: Test 1: Inhibition of TNF-α production in THP-1 cells. The assay is classed as cell-based. Particulars: Homo sapiens; 100 nM test compound; LPS (10 μg/mL) stimulated THP-1 cells, 20 hr; TNF-α in supernatant vs 0.1% DMSO control. Here is the method: Test 1: Inhibition of TNF-α Production in THP-1 Cells
THP-1 cells, a human monocytic cell line, were maintained in RPMI 1640 (Sigma R8758) supplemented with penicillin (50 U/mL), streptomycin (50 μg/mL) and 10% fetal bovine serum (Moregate BioTech.) at 37° C., 5% CO2 in a humidified incubator. Initial stock solutions of test compounds were made in DMSO. All cells, reagents and test compounds were diluted into culture media. THP-1 cells (1×10^5 cells/well final) and lipopolysaccharide (LPS; 10 μg/mL final; Sigma L-4005, from E. coli serotype 0.55:B5) were added to 96 well polypropylene culture plates (Sumilon, MS-8196F5; sterile) containing test compound or 0.1% DMSO vehicle. The cell mixture was incubated for 20 hr in a humidified incubator at 37° C., 5% CO2. The culture supernatants were harvested and TNF-α levels from LPS stimulated cells in the presence of 100 nM test compound was calculated compared with control cells stimulated in the presence of 0.1% DMSO.

For the molecule `O=C(Nc1cc(C(=O)NC2CC2)ccc1Cl)c1ccc(=O)n(-c2cccc(F)c2F)c1` [Example 17, N-{2-Chloro-5-[(cyclopropylamino)carbonyl]phenyl}-1-(2,3-difluorophenyl)-6-oxo-1,6-dihydro-3-pyridinecarboxamide], 0.1 µM produced 75% inhibition.

`O=C(Nc1cc(C(=O)NC2CC2)ccc1Cl)c1ccc(=O)n(-c2c(F)cccc2Cl)c1` [Example 16, N-{2-Chloro-5-[(cyclopropylamino)carbonyl]phenyl}-1-(2-chloro-6-fluorophenyl)-6-oxo-1,6-dihydro-3-pyridinecarboxamide] came in with an inhibition at 0.1 µM of 72%.

In the case of `Cn1ccc(NC(=O)c2ccc(Cl)c(NC(=O)c3ccc(=O)n(-c4c(Cl)cccc4Cl)c3)c2)n1` [Example 5, N-{2-Chloro-5-[(1-methyl-1H-pyrazol-3-ylamino)carbonyl]phenyl}-1-(2,6-dichlorophenyl)-6-oxo-1,6-dihydro-3-pyridinecarboxamide], testing at 0.1 µM gave an inhibition of 75%.

As to `Cc1ccc(C(=O)NC2CC2)cc1NC(=O)c1ccc(=O)n(-c2c(F)cccc2F)c1` [Example 22, N-{5-[(Cyclopropylamino)carbonyl]-2-methylphenyl}-1-(2,6-difluorophenyl)-6-oxo-1,6-dihydro-3-pyridinecarboxamide], 0.1 µM produced 97% inhibition.

In turn, `O=C(Nc1cc(C(=O)NC2CC2)ccc1Cl)c1ccc(=O)n(-c2c(Cl)cccc2Cl)c1` [Example 1, N-{2-chloro-5-[(cyclopropylamino)carbonyl]phenyl}-1-(2,6-dichlorophenyl)-6-oxo-1,6-dihydro-3-pyridinecarboxamide] gave an inhibition at 0.1 µM of 77%.

Consider `Cn1nccc1NC(=O)c1ccc(Cl)c(NC(=O)c2ccc(=O)n(-c3c(Cl)cccc3Cl)c2)c1` [Example 6, N-{2-Chloro-5-[(1-methyl-1H-pyrazol-5-ylamino)carbonyl]phenyl}-1-(2,6-dichlorophenyl)-6-oxo-1,6-dihydro-3-pyridinecarboxamide], for which the inhibition at 0.1 µM was determined as 82%.

As to `Cc1ccc(C(=O)NC2CC2)cc1NC(=O)c1ccc(=O)n(C(C)(C)C)c1` [Example 20, N-{5-[(cyclopropylamino)carbonyl]-2-methylphenyl}-1-tert-butyl-6-oxo-1,6-dihydro-3-pyridinecarboxamide], the inhibition at 0.1 µM was found to be 85%.

`O=C(Nc1cc(C(=O)NC2CC2)ccc1Br)c1ccc(=O)n(-c2c(F)cccc2F)c1` [Example 15, N-{2-Bromo-5-[(cyclopropylamino)carbonyl]phenyl}-1-(2,6-difluorophenyl)-6-oxo-1,6-dihydro-3-pyridinecarboxamide] displayed an inhibition at 0.1 µM of 69%.

`Cc1ccc(-n2nc(C(C)(C)C)cc2NC(=O)Nc2ccc(C)c(NC(=O)c3ccc(=O)n(-c4c(Cl)cccc4Cl)c3)c2)cc1` [Example 26, N-[5-[({[3-tert-butyl-1-(4-methylphenyl)-1H-pyrazol-5-yl]amino]carbonyl)amino]-2-methylphenyl}-1-(2,6-dichlorophenyl)-6-oxo-1,6-dihydro-3-pyridinecarboxamide] displayed an inhibition at 0.1 µM of 68%.

As to `Cc1ccc(C(=O)NC2CC2)cc1NC(=O)c1ccc(=O)n(C(C)c2ccccc2)c1` (centres unmarked) [Example 24, N-{5-[(Cyclopropylamino)carbonyl]-2-methylphenyl}-1-(1-phenylethyl)-6-oxo-1,6-dihydro-3-pyridinecarboxamide], testing at 0.1 µM gave an inhibition of 83%.

In turn, `CONC(=O)c1ccc(Cl)c(NC(=O)c2ccc(=O)n(-c3c(Cl)cccc3Cl)c2)c1` [Example 2, N-{2-Chloro-5-[(methoxyamino)carbonyl]phenyl}-1-(2,6-dichlorophenyl)-6-oxo-1,6-dihydro-3-pyridinecarboxamide] yielded an inhibition at 0.1 µM of 84%.

In the case of `O=C(Nc1ccon1)c1ccc(Cl)c(NC(=O)c2ccc(=O)n(-c3c(Cl)cccc3Cl)c2)c1` [Example 3, N-{2-Chloro-5-[(isoxazol-3-ylamino)carbonyl]phenyl}-1-(2,6-dichlorophenyl)-6-oxo-1,6-dihydro-3-pyridinecarboxamide], 0.1 µM produced 94% inhibition.

`Cc1ccc(NC(=O)C2CC2)cc1NC(=O)c1ccc(=O)n(-c2c(Cl)cccc2Cl)c1` [Example 25, N-{5-[(cyclopropylcarbonyl)amino]-2-methylphenyl}-1-(2,6-dichlorophenyl)-6-oxo-1,6-dihydro-3-pyridinecarboxamide] displayed an inhibition at 0.1 µM of 70%.

As to `Cc1ccc(C(=O)NC2CC2)cc1NC(=O)c1ccc(=O)n(-c2c(Cl)cccc2Cl)c1` [Example 18, N-{5-[(cyclopropylamino)carbonyl]-2-methylphenyl}-1-(2,6-dichlorophenyl)-6-oxo-1,6-dihydro-3-pyridinecarboxamide], the inhibition at 0.1 µM is 78%.
